System: PC-3 multi-cell spheroids, viability
Test: Anticancer human tumor PC-3 cell line growth inhibition [IpAb];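 further: spheroids exposed to compounds for 7 days before readout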;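 on viability, T/C: 100% = DMSO vehicle control wells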
Conditions: for IC50: curve of first compound; for viability, T/C: stronger effect = lower value
Excerpt: Combinatorial screen of targeted agents with ipatasertib and abemaciclib in multi-cell type tumor spheroids
A high-throughput screen of multi-cell type tumor spheroids was designed to identify active combinations of targeted small molecules and ipatasertib or abemaciclib. Complex spheroids include a stromal component modeled by human endothelial cells (HUVEC) and fibroblasts modeled by human mesenchymal stem cells (MSCs). The concentration ranges selected for each drug and investigational agent were based upon clinically achievable concentrations if the clinical Cmax of the agent was known.
Compounds. The drugs and investigational agents: ipatasertib (NSC767898), abemaciclib(NSC768073), selumetinib (NSC741078), trametinib (758246), adavosertib (NSC754352), everolimus (NSC733504), sapanisertib (NSC764658), vemurafenib (NSC761431), venetoclax (NSC766270), copanlisib (NSC809693), apelisib (NSC765974), palbociblib (NSC758247), vemurafenib (NSC761431), dabrafenib (NSC764134), ravoxertinib (NSC781343), BMS-387032 (NSC767048), sotorasib (NSC818433), talazoparib (NSC767125) and afursertib (NSC778305), were obtained from the National Cancer Institute (NCI) Developmental Therapeutics Program Chemical Repository. The FDA-approved anticancer drug set is available from the NCI Developmental Therapeutics Program. […] The stock solutions were prepared in dimethyl sulfoxide (DMSO, Sigma-Aldrich, St. Louis, MO, cat. D2650) at 800-fold the tested concentration and stored at -70 degrees C prior to their use. All drugs and investigational agents were tested over a range starting from a high concentration at or near the clinical Cmax and decreasing in half-log increments. If the clinical Cmax for an agent had not been determined, the highest concentration tested was 10 microM.
NCI60 Cell Culture. NCI60 cell lines were obtained from the NCI Developmental Therapeutics Program Tumor Repository. For each lot of cells, the Repository performed Applied Biosystems AmpFLSTR Identifiler testing with PCR amplification to confirm consistency with the published Identifier STR profile for each cell line. Cells were kept in continuous culture for no more than 20 passages. The optimal seeding densities for each of the cell lines at each time point assessed were determined prior to performing the concentration response studies. Briefly, the NCI60 human tumor lines were grown as monolayers in RPMI 1640 medium supplemented with 10% FBS and 2 mmol/L L-glutamine.
An additional 9 lines were from the NCI60 cell line panel including MDA-MB-231 breast carcinoma, MDA-MB-468 breast carcinoma, MCF7 breast carcinoma, Hs578T breast carcinoma, MALME-3M melanoma, SK-MEL-2 melanoma, SK-OV-3 ovarian carcinoma, DU-145 prostate carcinoma, PC-3 prostate carcinoma, all cell lines along with major genetic alterations are listed on Table 2. Pooled donor human umbilical vein endothelial cells (HUVEC, Lonza, cat. CC-2519) and human mesenchymal stem cells (hMSC, Lonza, cat. PT-2501) were purchased from Lonza (Walkersville, MD).
PDMR cell lines were grown in complete medium (DC medium): Dulbecco's modified Eagle's medium (DMEM)/F12 supplemented with 5% fetal bovine serum (FBS), 2 mM L-glutamine, 100 U/mL penicillin and 100 µg/ml streptomycin, 0.4 µg/ml hydrocortisone, 10 ng/ml epidermal growth factor (EGF) recombinant human protein, 24 µg/mL adenine, and 0.1 mg/mL primocin. During culture from frozen stock vials, PDMR cells were cultured in the same medium containing 10 µM Y-27632 (see Table 3). The PDCs were cultured in complete DMEM/F12 media without 10 microM Y-27632 dihydrochloride for at least two passages prior to the screen. The pooled donor HUVEC and hMSC were cultured in endothelial cell growth medium 2 (PromoCell, Heidelberg, Germany, cat. C-22011) and mesenchymal stem cell growth medium 2 (PromoCell, cat. C-28009), respectively. For all experiments, HUVEC and hMSC were used at passages </=5.
[…]

[1] = second compound 0.1 µM, first compound 0.0316 µM
[2] = second compound 0.1 µM, first compound 0.1 µM
[3] = second compound 0.316 µM, first compound 0.0316 µM
[4] = second compound 0.316 µM, first compound 0.1 µM
[5] = second compound 1 µM, first compound 0.0316 µM
[6] = second compound 1 µM, first compound 0.1 µM
[7] = second compound 3.16 µM, first compound 0.0316 µM
[8] = second compound 3.16 µM, first compound 0.1 µM
[9] = second compound 10 µM, first compound 0.0316 µM
[10] = second compound 10 µM, first compound 0.1 µM
[11] = second compound 0.1 µM, first compound 0.316 µM
[12] = second compound 0.1 µM, first compound 1 µM
[13] = second compound 0.1 µM, first compound 3.16 µM
[14] = second compound 0.1 µM, first compound 10 µM
[15] = second compound 0.316 µM, first compound 0.316 µM
[16] = second compound 0.316 µM, first compound 1 µM
[17] = second compound 0.316 µM, first compound 3.16 µM
[18] = second compound 0.316 µM, first compound 10 µM
[19] = second compound 1 µM, first compound 0.316 µM
[20] = second compound 1 µM, first compound 1 µM
[21] = second compound 1 µM, first compound 3.16 µM
[22] = second compound 1 µM, first compound 10 µM
[23] = second compound 3.16 µM, first compound 0.316 µM
[24] = second compound 3.16 µM, first compound 1 µM
[25] = second compound 3.16 µM, first compound 3.16 µM
[26] = second compound 3.16 µM, first compound 10 µM
[27] = second compound 10 µM, first compound 0.316 µM
[28] = second compound 10 µM, first compound 1 µM
[29] = second compound 10 µM, first compound 3.16 µM
[30] = second compound 10 µM, first compound 10 µM

CC(C)n1nc(-c2ccc3oc(N)nc3c2)c2c(N)ncnc21 + CC(C)NCC(C(=O)N1CCN(c2ncnc3c2C(C)CC3O)CC1)c1ccc(Cl)cc1
IC50 (second compound 0.1 µM): 1.3 nM
IC50 (second compound 0.316 µM): < 0.316 nM
IC50 (second compound 1 µM): < 0.316 nM
IC50 (second compound 3.16 µM): < 0.316 nM
IC50 (second compound 10 µM): < 0.316 nM
viability, T/C (second compound 0.1 µM, first compound 0.000316 µM): 63%
viability, T/C (second compound 0.1 µM, first compound 0.001 µM): 52.6%
viability, T/C (second compound 0.1 µM, first compound 0.00316 µM): 38.1%
viability, T/C (second compound 0.1 µM, first compound 0.01 µM): 20.2%
viability, T/C [1]: 10.4%
viability, T/C [2]: 10%
viability, T/C (second compound 0.316 µM, first compound 0.000316 µM): 37.3%
viability, T/C (second compound 0.316 µM, first compound 0.001 µM): 32.8%
viability, T/C (second compound 0.316 µM, first compound 0.00316 µM): 18.4%
viability, T/C (second compound 0.316 µM, first compound 0.01 µM): 11.8%
viability, T/C [3]: 7.3%
viability, T/C [4]: 6.67%
viability, T/C (second compound 1 µM, first compound 0.000316 µM): 20%
viability, T/C (second compound 1 µM, first compound 0.001 µM): 14.8%
viability, T/C (second compound 1 µM, first compound 0.00316 µM): 9.96%
viability, T/C (second compound 1 µM, first compound 0.01 µM): 7.81%
viability, T/C [5]: 5.46%
viability, T/C [6]: 4.64%
viability, T/C (second compound 3.16 µM, first compound 0.000316 µM): 12%
viability, T/C (second compound 3.16 µM, first compound 0.001 µM): 10.3%
viability, T/C (second compound 3.16 µM, first compound 0.00316 µM): 8.27%
viability, T/C (second compound 3.16 µM, first compound 0.01 µM): 5.41%
viability, T/C [7]: 3.69%
viability, T/C [8]: 4.13%
viability, T/C (second compound 10 µM, first compound 0.000316 µM): 12%
viability, T/C (second compound 10 µM, first compound 0.001 µM): 10.2%
viability, T/C (second compound 10 µM, first compound 0.00316 µM): 7.33%
viability, T/C (second compound 10 µM, first compound 0.01 µM): 3.83%
viability, T/C [9]: 2.74%
viability, T/C [10]: 2.74%

CC1(C)CCC(CN2CCN(c3ccc(C(=O)NS(=O)(=O)c4ccc(NCC5CCOCC5)c([N+](=O)[O-])c4)c(Oc4cnc5[nH]ccc5c4)c3)CC2)=C(c2ccc(Cl)cc2)C1 + CC(C)NCC(C(=O)N1CCN(c2ncnc3c2C(C)CC3O)CC1)c1ccc(Cl)cc1
IC50 (second compound 0.1 µM): 4270 nM
IC50 (second compound 0.316 µM): < 31.6 nM
IC50 (second compound 1 µM): < 31.6 nM
IC50 (second compound 3.16 µM): < 31.6 nM
IC50 (second compound 10 µM): < 31.6 nM
viability, T/C [1]: 69.2%
viability, T/C [2]: 63.2%
viability, T/C [11]: 67.6%
viability, T/C [12]: 63.2%
viability, T/C [13]: 69%
viability, T/C [14]: 3.74%
viability, T/C [3]: 43%
viability, T/C [4]: 46.8%
viability, T/C [15]: 42.7%
viability, T/C [16]: 45.3%
viability, T/C [17]: 35.7%
viability, T/C [18]: 3.22%
viability, T/C [5]: 22%
viability, T/C [6]: 20.5%
viability, T/C [19]: 22.4%
viability, T/C [20]: 19%
viability, T/C [21]: 15.8%
viability, T/C [22]: 3.59%
viability, T/C [7]: 14.5%
viability, T/C [8]: 15.3%
viability, T/C [23]: 12.4%
viability, T/C [24]: 13.4%
viability, T/C [25]: 12.7%
viability, T/C [26]: 3.12%
viability, T/C [9]: 13.7%
viability, T/C [10]: 12.7%
viability, T/C [27]: 14.1%
viability, T/C [28]: 11.5%
viability, T/C [29]: 10.7%
viability, T/C [30]: 0.81%

CCCS(=O)(=O)Nc1ccc(F)c(C(=O)c2c[nH]c3ncc(-c4ccc(Cl)cc4)cc23)c1F + CC(C)NCC(C(=O)N1CCN(c2ncnc3c2C(C)CC3O)CC1)c1ccc(Cl)cc1
IC50 (second compound 0.1 µM): 9890 nM
IC50 (second compound 0.316 µM): < 31.6 nM
IC50 (second compound 1 µM): < 31.6 nM
IC50 (second compound 3.16 µM): < 31.6 nM
IC50 (second compound 10 µM): < 31.6 nM
viability, T/C [1]: 81.9%
viability, T/C [2]: 87.5%
viability, T/C [11]: 95.2%
viability, T/C [12]: 94.1%
viability, T/C [13]: 83.8%
viability, T/C [14]: 49.3%
viability, T/C [3]: 45.2%
viability, T/C [4]: 43.8%
viability, T/C [15]: 46.4%
viability, T/C [16]: 52.7%
viability, T/C [17]: 50.3%
viability, T/C [18]: 27%
viability, T/C [5]: 25%
viability, T/C [6]: 22.6%
viability, T/C [19]: 27%
viability, T/C [20]: 28.4%
viability, T/C [21]: 26.3%
viability, T/C [22]: 15.1%
viability, T/C [7]: 13.6%
viability, T/C [8]: 15.6%
viability, T/C [23]: 16.8%
viability, T/C [24]: 17.2%
viability, T/C [25]: 14.5%
viability, T/C [26]: 10.5%
viability, T/C [9]: 12.8%
viability, T/C [10]: 13%
viability, T/C [27]: 15%
viability, T/C [28]: 14.9%
viability, T/C [29]: 12.6%
viability, T/C [30]: 7.8%

From PubChem BioAssay AID2060327 (Molecular Pharmacology Branch, DTP, NCI, 2025)
